The numbers were not newly measured in EP0276807A2, “Lipid regulating compositions” (WARNER-LAMBERT COMPANY, priority 1987, dated 1988), which cites them from elsewhere.

The target of the series is T1, HMG-CoA reductase (Homo sapiens, UniProt P04035).
T1 sequence (P04035 1-888): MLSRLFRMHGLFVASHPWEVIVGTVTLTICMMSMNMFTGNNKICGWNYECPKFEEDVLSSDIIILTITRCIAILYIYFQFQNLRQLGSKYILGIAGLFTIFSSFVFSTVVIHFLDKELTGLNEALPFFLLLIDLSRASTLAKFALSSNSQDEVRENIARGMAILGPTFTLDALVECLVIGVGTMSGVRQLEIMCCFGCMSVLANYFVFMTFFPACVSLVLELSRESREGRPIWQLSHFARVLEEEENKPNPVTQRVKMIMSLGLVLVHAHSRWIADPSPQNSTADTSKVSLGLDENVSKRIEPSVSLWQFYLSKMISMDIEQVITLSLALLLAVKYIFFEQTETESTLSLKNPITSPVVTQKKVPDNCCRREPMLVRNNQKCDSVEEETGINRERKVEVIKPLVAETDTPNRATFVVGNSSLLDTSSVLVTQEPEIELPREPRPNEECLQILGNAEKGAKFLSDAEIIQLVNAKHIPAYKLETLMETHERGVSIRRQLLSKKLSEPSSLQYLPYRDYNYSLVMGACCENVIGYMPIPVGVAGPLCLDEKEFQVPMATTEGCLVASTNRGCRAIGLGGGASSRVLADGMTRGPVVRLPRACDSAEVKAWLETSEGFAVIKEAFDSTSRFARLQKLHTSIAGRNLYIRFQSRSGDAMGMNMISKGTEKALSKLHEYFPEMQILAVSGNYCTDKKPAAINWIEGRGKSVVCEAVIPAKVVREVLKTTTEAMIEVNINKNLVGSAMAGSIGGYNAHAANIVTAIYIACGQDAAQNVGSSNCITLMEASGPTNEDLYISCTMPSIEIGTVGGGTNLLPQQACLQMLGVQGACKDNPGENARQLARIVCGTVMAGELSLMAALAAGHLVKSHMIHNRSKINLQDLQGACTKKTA
The settings on record: read-out: IC₅₀ value for inhibition of HMG-CoA reductase.

In the case of `CCC(C)C(=O)OC1CC(C)C=C2C=CC(C)C(CCC(O)CC(O)CC(=O)O)C21` (stereo not drawn) [Mevinolinic acid, [1S-[1α(βS*,δS*),2α,6β,8β(R*)8aα]]-1,2,6,7,8,8a-hexahydro-β,δ-dihydroxy-2,6-dimethyl-8-(2-methyl-1-oxobutoxy)-1-naphthaleneheptanoic acid], the IC50 was ~5.6 nM.
